One series has as its system enteric neurons. The series can be described thus: Enteric neuron cell viability (MTT) assay. The following applies: 24 h treatment, MTT (FIG. 5). Format: cell-based. Here is the method: Enteric neurons were cultured in differentiation medium, consisting on Neurobasal (Invitrogen, 21103049) supplemented with 1:200 N2 (Invitrogen, 17502048), 1:100 L-Glutamine (Invitrogen, 25030-024), 1:100 B-27 without Vitamin A (Life Technologies, 12587-010), 1:100 Penicillin/Streptomycin (Invitrogen, 15140122), 25 ng/mL GDNF (Peprotech, 450-10) and 100 μM Ascorbic Acid (Sigma, A5960). Cells were cultured for 21 days in a 6-well plate, then detached with Accutase (Sigma, A6964), and replated into a 96-well plate. Cells were maintained under differentiating conditions until day 31, when they were treated with increasing concentrations of 2-hydroxypyridine (Sigma, H56800). Tested concentrations were as follows: 1 μM, 3 μM, 6 μM, 10 μM, 30 μM, 60 μM, 100 μM, 300 μM, 600 μM, 1 mM and 3 mM.
2-Hydroxypyridine was reconstituted to 10 mM in the differentiation medium described above.
Cells were treated for 24 h, then cell viability was assessed performing a Tetrazolium (MTT) assay. Thiazolyl Blue tetrazolium Bromide (Sigma, M5655) was reconstituted to a 5 mg/mL solution in differentiation media and filtered. 10 μL of the solution were then added to every well containing 100 μL of media. Plate was incubated for 2 h in a normal incubator (37° C., 5% CO2). […] Cells were disaggregated by pipetting vigorously and absorbance was read at 570 nm, using the microplate Cytation 5M reader (Biotek).

The subject of series [1] is transgenic mice (Thy1-Syn14 males). The conditions noted are these: mouse, in vivo. Here is the method: Newly formed oligomeric forms are then propagated to the CNS via the vagus nerve.
To control toxicity and set an upper threshold level for the chronic exposure study, the ideal concentration in the animals' drinking water (ad libitum) is determined by testing three different concentrations. As reference, the LD50 value determined in rats is used as a threshold for an entire day. The animals, of an average weight of 28 g, take in […] of 2-HP per day. The second factor to account for is the volume of water a C57BI6/j mouse drinks per day, which varies between 5 mL and 8 mL. With an […] water intake per day, the maximum concentration the inventors use is 695 μg/mL of dissolved 2-HP. However, lower doses are aimed for:
These 3 doses are tested on a total of 48 animals. 24 wild-type and 24 transgenic animals are distributed amongst 12 groups. It is essential to have both genotypes in the study, since it cannot be foreseen how human wild-type alpha-synuclein and 2-HP interact in an in vivo model. Further, short-term and long-term effects are analysed. Additionally, this allows to proceed with the post-mortem analysis of the 14 days cohort, allowing to gather information of the early effects of 2-HP on an in vivo system. The following design is used:
In the in-life phase, all animals are checked regularly. Overall behavior in the cage is checked daily. […]

Another series deals with IL-1b mRNA expression. As to the kind of experiment: IL-1b mRNA expression (qPCR) in murine BMDM model. It counts as cell-based. The following applies: 10 mM 2-HP, normalized to β-actin, relative to 0 mM. Here is the method: The inventors have tested whether 2-HP can act as signal 1 in the activation of the NLRP3 inflammasome in murine bone-barrow derived macrophages (BMDMs). NLRP3 inflammasome activation is thought to play a role in the pathogenesis of neurodegenerative disorders, and increased levels of this inflammasome and of the related cytokine IL-1b have been detected in Parkinson's patients (Guan & Han, 2020). In these experiments, the cells were grown in BMDM growth media and treated with 2-hydroxypyridine (2.5 and 10 mM) for up to 72 hours. Inflammasome activation was evaluated with qPCR for IL-1b expression (normalized to β-actin), considering the fold change relative to 0 mM 2-HP of each time point. There was a 3.2-fold increase in IL-1b mRNA after 3 hours of 10 mM 2-HP treatment, and 1.5-fold increase after 24 hours (FIG. 8).

The next series deals with rats. The conditions noted are these: oral administration; cited from earlier work.
For a further series, the target named is T1, alpha-synuclein (Homo sapiens, UniProt P37840).
T1 construct: expressed in transfected cells; host or cells: HiTox yeast strains, galactose-inducible expression
As to the kind of experiment: Alpha-synuclein aggregation. The following applies: in contact with alpha-synuclein. As for the experimental part:
The aggregation of alpha-synuclein is the key molecular hallmark of PD.
The following abbreviations have the meaning given in brackets: α-Syn (alpha-synuclein), α-Syn-F (fibrillary alpha-synuclein, i.e. alpha-synuclein aggregations), Hoechst (DNA staining), TUJ1 (general neuronal marker), TH (tyrosine hydroxylase) and CC3 (cleaved caspase 3 staining, i.e. cell death marker, showing toxicity).
Cells fixed in 4% paraformaldehyde (Merck Millipore, 1004965000) for 15 min at RT and then washed 3× for 5 min with PBS at RT. Prior to immunostaining, a permeabilization step was performed using 0.05% Triton-X100 solution in PBS for 10 min at 4° C. Cells were then blocked for 1 h at RT with 10% FBS in PBS. Incubation with α-synuclein antibody (NOVUS biologicals, NBP1-05194, 1:1000), α-synuclein filament antibody (Abcam, ab20953, 1:5000) and TUJ1 (Millipore, AB9354, 1:600) was done overnight at 4° C. in blocking buffer. The following day, cells were washed with PBS 3× for 5 min at RT. Then, incubation with the corresponding secondary antibodies, Alexa Fluor anti-chicken 488 (Invitrogen, A-11039, 1:1000), Alexa Fluor anti-mouse IgG1 647 (Invitrogen, A-21240, 1:1000) and Alexa Fluor anti-rabbit 568 (Invitrogen, A11036, 1:1000) was performed for 2 h at RT in blocking buffer. Hoechst 33342 solution (Invitrogen, 62249, 1:1000) was added during this step to stain the nuclei. […]

Series [2] relates to HiTox strains of yeast expressing human alpha-synuclein. The series can be described thus: Yeast growth toxicity assay, HiTox strain. It counts as cell-based. As for the experimental part: (§1) Yeast cells were grown in synthetic complement (SC) media containing 6.7 g/L yeast nitrogen base without amino acids, 5 g/L ammonium sulfate supplemented with 2 g/L SC. Media was autoclaved and the carbon source (8% raffinose or galactose) was added to a final concentration of 2%.
(§2) Four fresh single colonies of the Hitox strain and its respective control strain were inoculated from SC-2% glucose plates into 5 mL SC-2% raffinose and incubated overnight with shaking (200 rpm) at 30° C. After ≈20 h, overnight cultures were diluted to OD 0.5 and 2 μL of the yeast cultivation was added to 78 μL drug containing media to a final optical density of 0.0125 in a 384-well microplate. 2-HP was diluted in SC-2% raffinose/galactose and tested at different concentrations (1-100 mM). Finally, the plates are measured in a microplate reader (TECAN™ Infinite M200Pro), at an interval of 10 minutes during 72 h at 30° C. Yeast growth phenotyping was performed as previous described (Jung et al. 2015). Final biomass was corrected using the GATHODE software (Jung et al., 2015). The OD600 at 48 h was taken for the quantification.

In a further series the test system is wildtype mice. The series can be described thus: Adhesive removal test after injection into the brain. Format: in vivo. The following applies: higher 2-HP concentrations, 15 days post-injection, vs PBS. As for the experimental part: The in vivo work testing for effects of 2-HP in a mouse model lead to results from a small-scale 15-day experiment. In this experiment, 2-HP was injected at several concentrations (5, 50 and 100 mM) into the brain of transgenic mice overexpressing human alpha-synuclein, and of wildtype control mice.

A further series concerns control strain. The series can be described thus: Yeast growth toxicity assay, control strain. Format: cell-based. Here is the method: as §1, §2
Setting [3] is: control, higher concentration of 2-HP (FIG. 3C).

Structures are written as SMILES.

`Oc1ccccn1` [2-HP, 2-hydroxypyridine]: in the series on enteric neurons, the LD50 (commonly the dose at which mortality reaches 50%) was “around 3 mM”. In series [1], the “alpha-synuclein in ENS” value was “increased accumulation up to aggregation of alpha-synuclein”; the “motor symptoms and PD-like pathology” value is reported as “exacerbation of motor symptoms”. Besides, the “increase in IL-1b mRNA” value in the series on IL-1b mRNA expression (3 hours) worked out at 3.2 fold. The “increase in IL-1b mRNA” value with IL-1b mRNA expression (24 hours) is listed as 1.5 fold. The LD50 with rats is 124 mg/kg. For the same compound, at alpha-synuclein, the “effect on alpha-synuclein aggregation” value was “promotes aggregation”. Also, in series [2] (HiTox strains of yeast expressing human alpha-synuclein), the “dose at which selectively toxic to transgenic alpha-synuclein expressing yeast” value is given as 1 mM. Besides, the “toxicity (growth), alpha-synuclein induced” value in series [2] (in presence of galactose, HiTox strains (FIG. 3B)) is reported as “A toxic dose-response can be observed in the HiTox strains”. Further, the “toxicity (growth), alpha-synuclein not induced” value in series [2] (in presence of raffinose (FIG. 3A)) is “A toxic dose-response can be observed”. The “performance in adhesive removal test (sensorimotor function)” value in the series on wildtype mice is “perform worse”. Further, in the series on control strain (setting [3]), the “lag time of growth curve” value is recorded as “prolonged” and the “yield of growth curve” value is reported as “unaffected”. Further, the “toxicity (growth), control strain” value in the series on control strain (in presence of galactose, control strain (FIG. 3B)) is given as “not in the control strain”.

The values above are taken from US20220387368A1, “AN INHIBITOR OF AN IRON-CONTAINING HYDROGENASE OF A METHANOGENIC ARCHAEON FOR USE IN THE TREATMENT OR PREVENTION OF A PARKINSONIAN CONDITION” (UNIVERSITE DU LUXEMBOURG, priority 2019, published 2022).
